Assay results published in the NIST ThermoML archive (doi:10.1021/je060271a).
Where “and” joins values, the source holds several entries; their conditions need not be identical. Equal entries are not always repeated.

Conditions: 303.15 K, Liquid, Vibrating tube method

CCCCCC(=O)OCC(COC(=O)CCCCC)(COC(=O)CCCCC)COC(=O)CCCCC [pentaerythritol tetrahexanoate]
Conditions	mass density
228.5 kPa	988.5 kg/m3
228.8 kPa	988.5 kg/m3 and 988.4 kg/m3
229 kPa	988.6 kg/m3
229.5 kPa	988.6 kg/m3
229.7 kPa	988.5 kg/m3
230 kPa	988.5 kg/m3
230.2 kPa	988.5 kg/m3
230.4 kPa	988.5 kg/m3
230.8 kPa	988.5 kg/m3
230.9 kPa	988.5 kg/m3
231.1 kPa	988.3 kg/m3
231.4 kPa	988.5 kg/m3
231.8 kPa	988.4 kg/m3
233.2 kPa	988.5 kg/m3
233.5 kPa	988.4 kg/m3 and 988.5 kg/m3
242.4 kPa	988.5 kg/m3
244 kPa	988.5 kg/m3
244.1 kPa	988.6 kg/m3
244.5 kPa	988.5 kg/m3
247.3 kPa	988.5 kg/m3
247.4 kPa	988.4 kg/m3
247.8 kPa	988.5 kg/m3
248.1 kPa	988.4 kg/m3 and 988.6 kg/m3
248.3 kPa	988.5 kg/m3
249.7 kPa	988.5 kg/m3
250.2 kPa	988.5 kg/m3
250.4 kPa	988.4 kg/m3
250.6 kPa	988.5 kg/m3
250.7 kPa	988.6 kg/m3
262 kPa	988.6 kg/m3
283.9 kPa	988.4 kg/m3
284.4 kPa	988.6 kg/m3
284.8 kPa	988.6 kg/m3 and 988.5 kg/m3
287.9 kPa	988.5 kg/m3
288.2 kPa	988.6 kg/m3
288.7 kPa	988.6 kg/m3
289.1 kPa	988.6 kg/m3
289.6 kPa	988.6 kg/m3 and 988.5 kg/m3
293.3 kPa	988.6 kg/m3
294 kPa	988.7 kg/m3 and 988.6 kg/m3
294.3 kPa	988.6 kg/m3
294.8 kPa	988.5 kg/m3
295 kPa	988.5 kg/m3
295.2 kPa	988.4 kg/m3
295.9 kPa	988.6 kg/m3 and 988.5 kg/m3
296.4 kPa	988.6 kg/m3 and 988.5 kg/m3
296.9 kPa	988.6 kg/m3
297.3 kPa	988.4 kg/m3
297.6 kPa	988.5 kg/m3
305.4 kPa	988.5 kg/m3
305.8 kPa	988.6 kg/m3
305.9 kPa	988.6 kg/m3
312.9 kPa	988.4 kg/m3
313.2 kPa	988.6 kg/m3
314.1 kPa	988.6 kg/m3
314.5 kPa	988.5 kg/m3
314.8 kPa	988.5 kg/m3
315.2 kPa	988.5 kg/m3
315.8 kPa	988.6 kg/m3
324.2 kPa	988.6 kg/m3
324.7 kPa	988.5 kg/m3
329.4 kPa	988.6 kg/m3
329.9 kPa	988.6 kg/m3
330.4 kPa	988.7 kg/m3
330.8 kPa	988.6 kg/m3
331.1 kPa	988.6 kg/m3
331.5 kPa	988.5 kg/m3
331.6 kPa	988.6 kg/m3
332 kPa	988.6 kg/m3
332.7 kPa	988.6 kg/m3 and 988.7 kg/m3
334.1 kPa	988.7 kg/m3
334.4 kPa	988.5 kg/m3
334.6 kPa	988.5 kg/m3
335.1 kPa	988.6 kg/m3
335.6 kPa	988.6 kg/m3
335.7 kPa	988.6 kg/m3
336.2 kPa	988.6 kg/m3
336.5 kPa	988.6 kg/m3
337 kPa	988.6 kg/m3
337.6 kPa	988.6 kg/m3
337.9 kPa	988.6 kg/m3
338.1 kPa	988.6 kg/m3
338.3 kPa	988.5 kg/m3
339 kPa	988.5 kg/m3
340 kPa	988.6 kg/m3
341.5 kPa	988.5 kg/m3
342.1 kPa	988.6 kg/m3
342.8 kPa	988.7 kg/m3
343.1 kPa	988.5 kg/m3
343.3 kPa	988.6 kg/m3
343.8 kPa	988.5 kg/m3
389.7 kPa	988.6 kg/m3
391.9 kPa	988.5 kg/m3
393.8 kPa	988.6 kg/m3
396.4 kPa	988.7 kg/m3
398.9 kPa	988.6 kg/m3
401 kPa	988.6 kg/m3
403.1 kPa	988.6 kg/m3
405.6 kPa	988.6 kg/m3
407.9 kPa	988.5 kg/m3
410.3 kPa	988.7 kg/m3
413.3 kPa	988.6 kg/m3
415.4 kPa	988.6 kg/m3
418.3 kPa	988.7 kg/m3
420.6 kPa	988.6 kg/m3
423.2 kPa	988.6 kg/m3
426.5 kPa	988.7 kg/m3
428.6 kPa	988.7 kg/m3
431 kPa	988.6 kg/m3
434 kPa	988.6 kg/m3
436.4 kPa	988.7 kg/m3
439.4 kPa	988.6 kg/m3
442.5 kPa	988.7 kg/m3
445.1 kPa	988.7 kg/m3
448.1 kPa	988.6 kg/m3
451.4 kPa	988.6 kg/m3
579.1 kPa	988.9 kg/m3
583.8 kPa	988.9 kg/m3
588.3 kPa	988.7 kg/m3
593.5 kPa	988.7 kg/m3
598.6 kPa	988.6 kg/m3
604.3 kPa	988.7 kg/m3
609.3 kPa	988.6 kg/m3
614.4 kPa	988.7 kg/m3
620.8 kPa	988.8 kg/m3
625.5 kPa	988.7 kg/m3
631 kPa	988.8 kg/m3
635.9 kPa	988.8 kg/m3
642.5 kPa	988.8 kg/m3
648.3 kPa	988.8 kg/m3
653.8 kPa	988.8 kg/m3
660.6 kPa	988.8 kg/m3
666.7 kPa	988.8 kg/m3
672.6 kPa	988.8 kg/m3
679.9 kPa	988.7 kg/m3
686 kPa	988.7 kg/m3
838 kPa	988.9 kg/m3
872.9 kPa	989 kg/m3
882.8 kPa	988.9 kg/m3
890.8 kPa	988.9 kg/m3
899 kPa	988.9 kg/m3
907.3 kPa	989 kg/m3
916.8 kPa	989 kg/m3
925 kPa	988.8 kg/m3
933.2 kPa	989 kg/m3
